According to US8362027B2, “Iontophoretic preparation for treatment of breast cancer and/or mastitis” (Kowa Co., Ltd., priority 2005, dated 2013):
Read-outs that look alike come from different tables or passages of the source.

Columns and labels:
[1] = not given; remark: listed apart in the source
[2] = nipple skin (corrected to nipple part only), no application of electric potential, 60 min
[3] = nipple skin (corrected to nipple part only), no application of electric potential, 120 min
[4] = nipple skin (corrected to nipple part only), no application of electric potential, 180 min
[5] = nipple skin, no application of electric potential

O=c1[nH]cc(F)c(=O)[nH]1 [5-fluorouracil]
permeated amount of 5-fluorouracil (nipple skin (corrected to nipple part only), application of electric potential (3 V), 60 min): 17.6 μg/cm^2
permeated amount of 5-fluorouracil (nipple skin (corrected to nipple part only), application of electric potential (3 V), 120 min): 151.7 μg/cm^2
permeated amount of 5-fluorouracil (nipple skin (corrected to nipple part only), application of electric potential (3 V), 180 min): 383.3 μg/cm^2
permeated amount of 5-fluorouracil (nipple skin (corrected to nipple part only), application of electric potential (3 V), 240 min): 676.3 μg/cm^2
permeated amount of 5-fluorouracil (nipple skin (corrected to nipple part only), application of electric potential (3 V), 300 min): 1032.3 μg/cm^2
permeated amount of 5-fluorouracil (nipple skin (corrected to nipple part only), application of electric potential (3 V), 360 min): 1391.3 μg/cm^2
permeated amount of 5-fluorouracil [2]: 0.0 μg/cm^2
permeated amount of 5-fluorouracil [3]: 0.2 μg/cm^2
permeated amount of 5-fluorouracil [4]: 0.7 μg/cm^2
permeated amount of 5-fluorouracil (nipple skin (corrected to nipple part only), no application of electric potential, 240 min): 1.6 μg/cm^2
permeated amount of 5-fluorouracil (nipple skin (corrected to nipple part only), no application of electric potential, 300 min): 3.0 μg/cm^2
permeated amount of 5-fluorouracil (nipple skin (corrected to nipple part only), no application of electric potential, 360 min): 5.6 μg/cm^2
Increase rate of permeated amount after 360 minutes with respect to normal skin without application of electric potential (nipple skin, application of electric potential (3 V)): 9937.8
Increase rate of permeated amount after 360 minutes with respect to normal skin without application of electric potential [5]: 39.7
increase of permeability of 5-fluorouracil (nipple, compared with the permeability without application of electric potential): about 40 times
increase of permeability of 5-fluorouracil (nipple, electric potential applied (3V), vs normal skin): about 10000 times
Increase rate of permeated amount after 360 minutes with respect to normal skin without application of electric potential (normal skin, application of electric potential (3 V)): 3430.7
permeated amount of 5-fluorouracil (normal skin, application of electric potential (3 V), 60 min, donor 1%, pH 8.5): 1.3 μg/cm^2
permeated amount of 5-fluorouracil (normal skin, application of electric potential (3 V), 120 min, donor 1%, pH 8.5): 11.7 μg/cm^2
permeated amount of 5-fluorouracil (normal skin, application of electric potential (3 V), 180 min, donor 1%, pH 8.5): 44.4 μg/cm^2
permeated amount of 5-fluorouracil (normal skin, application of electric potential (3 V), 240 min, donor 1%, pH 8.5): 121.5 μg/cm^2
permeated amount of 5-fluorouracil (normal skin, application of electric potential (3 V), 300 min, donor 1%, pH 8.5): 264.9 μg/cm^2
permeated amount of 5-fluorouracil (normal skin, application of electric potential (3 V), 360 min, donor 1%, pH 8.5): 480.3 μg/cm^2
increase of permeability of 5-fluorouracil (normal skin, electric potential applied (3V), vs without potential): about 3000 times
permeated amount of 5-fluorouracil (normal skin, no application of electric potential, 60 min, donor 1%, pH 8.5): 0.0 μg/cm^2
permeated amount of 5-fluorouracil (normal skin, no application of electric potential, 120 min, donor 1%, pH 8.5): 0.0 μg/cm^2
permeated amount of 5-fluorouracil (normal skin, no application of electric potential, 180 min, donor 1%, pH 8.5): 0.0 μg/cm^2
permeated amount of 5-fluorouracil (normal skin, no application of electric potential, 240 min, donor 1%, pH 8.5): 0.0 μg/cm^2
permeated amount of 5-fluorouracil (normal skin, no application of electric potential, 300 min, donor 1%, pH 8.5): 0.1 μg/cm^2
permeated amount of 5-fluorouracil (normal skin, no application of electric potential, 360 min, donor 1%, pH 8.5): 0.1 μg/cm^2

O=P1(N(CCCl)CCCl)NCCCO1 (stereo not shown) [cyclophosphamide]
permeated amount of cyclophosphamide ([1]; nipple skin (corrected to nipple part only), application of electric potential (0.1 mA/cm^2), 0 min): 0.0 μg/cm^2
permeated amount of cyclophosphamide ([1]; nipple skin (corrected to nipple part only), application of electric potential (0.1 mA/cm^2), 30 min): 34.3 μg/cm^2
permeated amount of cyclophosphamide ([1]; nipple skin (corrected to nipple part only), application of electric potential (0.1 mA/cm^2), 60 min): 123.2 μg/cm^2
permeated amount of cyclophosphamide ([1]; nipple skin (corrected to nipple part only), application of electric potential (0.1 mA/cm^2), 90 min): 125.3 μg/cm^2
permeated amount of cyclophosphamide ([1]; nipple skin (corrected to nipple part only), application of electric potential (0.1 mA/cm^2), 120 min): 121.4 μg/cm^2
permeated amount of cyclophosphamide ([1]; nipple skin (corrected to nipple part only), application of electric potential (0.1 mA/cm^2), 150 min): 120.4 μg/cm^2
permeated amount of cyclophosphamide ([1]; nipple skin (corrected to nipple part only), application of electric potential (0.1 mA/cm^2), 180 min): 123.1 μg/cm^2
permeated amount of cyclophosphamide ([1]; nipple skin (corrected to nipple part only), no application of electric potential, 0 min): 0.0 μg/cm^2
permeated amount of cyclophosphamide ([1]; nipple skin (corrected to nipple part only), no application of electric potential, 30 min): 24.9 μg/cm^2
permeated amount of cyclophosphamide [1, 2]: 2.0 μg/cm^2
permeated amount of cyclophosphamide ([1]; nipple skin (corrected to nipple part only), no application of electric potential, 90 min): 6.9 μg/cm^2
permeated amount of cyclophosphamide [1, 3]: 20.2 μg/cm^2
permeated amount of cyclophosphamide ([1]; nipple skin (corrected to nipple part only), no application of electric potential, 150 min): 1.4 μg/cm^2
permeated amount of cyclophosphamide [1, 4]: 6.9 μg/cm^2
Increase rate of permeated amount after 180 minutes with respect to normal skin without application of electric potential ([1]; nipple skin, application of electric potential (0.1 mA/cm^2)): 7.1
Increase rate of permeated amount after 180 minutes with respect to normal skin without application of electric potential [1, 5]: 0.4
change of permeability of cyclophosphamide ([1]; nipple without electric potential, compared with normal skin): not enhanced
increase of permeability of cyclophosphamide ([1]; nipple, electric potential (0.1 mA/cm^2), vs normal skin without potential): about 7.1 times
Increase rate of permeated amount after 180 minutes with respect to normal skin without application of electric potential ([1]; normal skin, application of electric potential (0.1 mA/cm^2)): 0.9
permeated amount of cyclophosphamide ([1]; normal skin, application of electric potential (0.1 mA/cm^2), 0 min, donor 25 mM, pH 3): 0.0 μg/cm^2
permeated amount of cyclophosphamide ([1]; normal skin, application of electric potential (0.1 mA/cm^2), 30 min, donor 25 mM, pH 3): 13.4 μg/cm^2
permeated amount of cyclophosphamide ([1]; normal skin, application of electric potential (0.1 mA/cm^2), 60 min, donor 25 mM, pH 3): 13.9 μg/cm^2
permeated amount of cyclophosphamide ([1]; normal skin, application of electric potential (0.1 mA/cm^2), 90 min, donor 25 mM, pH 3): 13.7 μg/cm^2
permeated amount of cyclophosphamide ([1]; normal skin, application of electric potential (0.1 mA/cm^2), 120 min, donor 25 mM, pH 3): 16.2 μg/cm^2
permeated amount of cyclophosphamide ([1]; normal skin, application of electric potential (0.1 mA/cm^2), 150 min, donor 25 mM, pH 3): 16.3 μg/cm^2
permeated amount of cyclophosphamide ([1]; normal skin, application of electric potential (0.1 mA/cm^2), 180 min, donor 25 mM, pH 3): 16.2 μg/cm^2
change of permeability of cyclophosphamide ([1]; normal skin, electric potential applied (0.1 mA/cm^2), vs without potential): hardly changed
permeated amount of cyclophosphamide ([1]; normal skin, no application of electric potential, 0 min, donor 25 mM, pH 3): 0.0 μg/cm^2
permeated amount of cyclophosphamide ([1]; normal skin, no application of electric potential, 30 min, donor 25 mM, pH 3): 13.3 μg/cm^2
permeated amount of cyclophosphamide ([1]; normal skin, no application of electric potential, 60 min, donor 25 mM, pH 3): 14.4 μg/cm^2
permeated amount of cyclophosphamide ([1]; normal skin, no application of electric potential, 90 min, donor 25 mM, pH 3): 15.0 μg/cm^2
permeated amount of cyclophosphamide ([1]; normal skin, no application of electric potential, 120 min, donor 25 mM, pH 3): 15.5 μg/cm^2
permeated amount of cyclophosphamide ([1]; normal skin, no application of electric potential, 150 min, donor 25 mM, pH 3): 17.2 μg/cm^2
permeated amount of cyclophosphamide ([1]; normal skin, no application of electric potential, 180 min, donor 25 mM, pH 3): 17.4 μg/cm^2
